# Source: patent US7456153B2, “Compounds and methods for modulating functions of classical cadherins” (Adherex Technologies Inc., priority 2002, dated 2008)
# Target: Fc-E-cadherin chimeric protein
# Experiment: BIAcore binding of peptide modulating agents to captured Fc-E-cadherin
# Conditions: absence of calcium
# Protocol: The binding of representative peptide modulating agents to Fc-E-cadherin chimeric protein in either the presence (3 mM CaCl2) or absence of calcium was assessed using a BIAcore X™ Biosensor (Pharmacia Ltd., Sweden). Protein A was immobilized on the flow cells of a CM 5 sensor chip using a standard amine coupling method. The surfaces were activated with a 7 min injection of NHS/EDC, followed by a 7 min injection of protein A in 10 mM acetate pH 5.0 at a concentration of 50 ug/mL and blocked with a 7 min injection of […] ethanolamine, pH 8.2. […] Next, Fc-E-cadherin was injected over the protein A surface to be captured on the sensor chip.
# To test compound binding to these surfaces, candidate modulating agents were injected in a three-fold dilution series over the Fc-E-cadherin-coated surfaces using six concentrations and each concentration was repeated twice.
row,Substance,KD Fc-ECAD no Ca++
1,DWVIPA [H-DWVIPA-NH2],no binding
2,DWVIAP [H-DWVIAP-NH2],no binding
3,AWVIPP [H-AWVIPP-NH2],no binding
4,PWVIPP [H-PWVIPP-NH2],no binding
5,DWVAPP [H-DWVAPP-NH2],no binding
6,DWVIPP [H-DWVIPP-NH2],no binding

# System: SKOV3 human ovarian cancer cells
# Experiment: Disruption of confluent SKOV3 monolayers (microscopic examination)
# Type: cell-based
# Conditions: 1 mg/ml of culture medium, 24 hours
# Protocol: We investigated the effects of the linear peptide ADH254 (H-DWVIPP-NH2; classical cadherin derived peptide) on confluent cultures of SKOV3 cells. SKOV3 human ovarian cancer cells express N-cadherin. The cells were cultured in minimum essential medium (MEM) supplemented with 10% fetal calf serum, non-essential amino acids, fungizone, penicillin-streptomycin, and gentamicin in a humidified atmosphere (5% CO2) at 37° C. All culture reagents were purchased from GIBCO (Burlington, ON). ADH254 (1 mg/ml of culture medium) was added to confluent cultures of SKOV3 cells. After 24 hours of treatment, the cells were fixed with 4% paraformaldehyde, followed by 3 washes with phosphate buffered saline, and then stained with hematoxylin. Control cultures were grown in the absence of peptide.
# The peptide caused the SKOV3 cells to detach from one another and adopt an elongated, fibroblast-like morphology. These observations indicate that Trp containing peptides can disrupt cell adhesion.
row,Substance,disruption of confluent SKOV3 monolayers
1,DWVIPP [H-DWVIPP-NH2],caused disruption of the confluent SKOV3 monolayers
